Where “and” joins values, the source holds several entries; their conditions need not be identical. Identical values can stand only once. Toxic doses and inconclusive results are not listed. How the source made its calls: active means survival T/C of 150% or more; inactive means T/C below 125% in these data.
Test system: P388 leukemia ip, CD2F1 mice, survival T/C
Assay: NCI In Vivo Anticancer Drug Screen. Data for tumor model P388 Leukemia (intraperitoneal) in CD2F1 (CDF1) mice
Settings: endpoint: median survival time, higher = longer survival
Procedure, shortened: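 Mice carrying the transplanted tumor received test compound or vehicle. Survival was recorded in each group, and the value is the treated-group measurement divided by that of the vehicle-treated control group.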

[1] = dose: 50.0 mg/kg/injection, schedule: Q01DX005 (ip), vehicle: saline with Tween-80
[2] = dose: 100.0 mg/kg/injection, schedule: Q01DX005 (ip), vehicle: saline with Tween-80
[3] = dose: 50.0 mg/kg/injection, schedule: Q01DX009 (ip), vehicle: saline
[4] = dose: 100.0 mg/kg/injection, schedule: Q01DX009 (ip), vehicle: saline
[5] = dose: 200.0 mg/kg/injection, schedule: Q01DX009 (ip), vehicle: saline

Measured: T/C

CC1=CC(=O)C2(C)C1=CC(=O)C13COC4OC(CC1C4=O)C(O)C23 (stereo unspecified)
inactive: dose: 1.0 mg/kg/injection, schedule: Q01DX009 (ip), vehicle: Klucel (hydroxypropylcellulose) (HPC) 97 % of control | dose: 2.0 mg/kg/injection, schedule: Q01DX009 (ip), vehicle: Klucel (hydroxypropylcellulose) (HPC) 94 % of control | dose: 4.0 mg/kg/injection, schedule: Q01DX009 (ip), vehicle: Klucel (hydroxypropylcellulose) (HPC) 98 % of control | dose: 8.0 mg/kg/injection, schedule: Q01DX009 (ip), vehicle: Klucel (hydroxypropylcellulose) (HPC) 102 % of control

Nc1nc(N)c(N)c(N)n1
inactive: dose: 50.0 mg/kg/injection, schedule: Q04DX003 (ip), vehicle: saline with Tween-80 98 % of control | dose: 100.0 mg/kg/injection, schedule: Q04DX003 (ip), vehicle: saline with Tween-80 104 % of control | dose: 200.0 mg/kg/injection, schedule: Q04DX003 (ip), vehicle: saline with Tween-80 97 % of control | dose: 400.0 mg/kg/injection, schedule: Q04DX003 (ip), vehicle: saline with Tween-80 96 % of control

C[N+](C)(C)CCNP(=O)(Oc1ccccc1)c1ccccc1 (stereo unspecified)
inactive: [1] 103 % of control | [2] 94 % of control

Cc1ccc2ncc([N+](=O)[O-])n2c1
inactive: dose: 50.0 mg/kg/injection, schedule: Q01DX001 (ip), vehicle: saline with Tween-80 94 % of control | dose: 100.0 mg/kg/injection, schedule: Q01DX001 (ip), vehicle: saline with Tween-80 97 % of control | dose: 200.0 mg/kg/injection, schedule: Q01DX001 (ip), vehicle: saline with Tween-80 90 % of control | dose: 400.0 mg/kg/injection, schedule: Q01DX001 (ip), vehicle: saline with Tween-80 94 % of control

COc1ccc(C2CC(=O)N(CN3CCN(c4ccc(Cl)cc4)CC3)C(=O)C2)cc1
inactive: dose: 6.25 mg/kg/injection, schedule: Q01DX009 (ip), vehicle: saline with Tween-80 94 % of control | dose: 12.5 mg/kg/injection, schedule: Q01DX009 (ip), vehicle: saline with Tween-80 94 % of control | dose: 25.0 mg/kg/injection, schedule: Q01DX009 (ip), vehicle: saline with Tween-80 91 % of control | dose: 200.0 mg/kg/injection, schedule: Q01DX009 (ip), vehicle: saline with Tween-80 92 % of control

C[C@@H]1CN1C1=CC(=O)C(N2C[C@H]2C)=CC1=O
active: dose: 1.25 mg/kg/injection, schedule: Q01DX009 (ip), vehicle: gum acacia 169 % of control | dose: 2.5 mg/kg/injection, schedule: Q01DX009 (ip), vehicle: gum acacia 166 % of control and 169 % of control | dose: 5.0 mg/kg/injection, schedule: Q01DX009 (ip), vehicle: gum acacia 169 % of control and 173 % of control
inactive: dose: 0.31 mg/kg/injection, schedule: Q01DX009 (ip), vehicle: gum acacia 122 % of control | dose: 37.0 micrograms/kg/injection, schedule: Q01DX009 (ip), vehicle: gum acacia 102 % of control | dose: 75.0 micrograms/kg/injection, schedule: Q01DX009 (ip), vehicle: gum acacia 113 % of control | dose: 150.0 micrograms/kg/injection, schedule: Q01DX009 (ip), vehicle: gum acacia 117 % of control | dose: 310.0 micrograms/kg/injection, schedule: Q01DX009 (ip), vehicle: gum acacia 111 % of control

O=C(NC(C(=O)NO)C(NO)c1ccccc1)c1ccccc1 (stereo unspecified)
inactive: [1] 103 % of control | [2] 102 % of control | dose: 200.0 mg/kg/injection, schedule: Q01DX005 (ip), vehicle: saline with Tween-80 102 % of control

CCCCSc1ccc(NN=O)nc1
active: dose: 6.25 mg/kg/injection, schedule: Q01DX009 (ip), vehicle: water 151 % of control
inactive: dose: 1.56 mg/kg/injection, schedule: Q01DX009 (ip), vehicle: water 118 % of control

Cc1cc(Nc2ccccc2C(=O)N/N=C/c2ccc(N(CCCl)CCCl)cc2)nc2ccc(Cl)cc12
inactive: [3] 95 % of control | [4] 90 % of control | [5] 95 % of control

CC(=O)NC(Cc1cc(I)c(O)c(I)c1)C(=O)O (stereo unspecified)
inactive: dose: 25.0 mg/kg/injection, schedule: Q01DX009 (ip), vehicle: Klucel (hydroxypropylcellulose) (HPC) 94 % of control | dose: 50.0 mg/kg/injection, schedule: Q01DX009 (ip), vehicle: Klucel (hydroxypropylcellulose) (HPC) 88 % of control | [3] 100 % of control | dose: 100.0 mg/kg/injection, schedule: Q01DX009 (ip), vehicle: Klucel (hydroxypropylcellulose) (HPC) 94 % of control | [4] 107 % of control | dose: 200.0 mg/kg/injection, schedule: Q01DX009 (ip), vehicle: Klucel (hydroxypropylcellulose) (HPC) 94 % of control | [5] 105 % of control
